According to patent publication US6362176B1, “Compositions, methods and kits for treating rheumatoid arthritis” (Super Gen, Inc., priority 1998, dated 2002):

Legend:
RA patients [1] = conditions: bi-weekly pentostatin, months 1 and 3; cited from earlier work
RA patients [2] = experiment: pentostatin monotherapy on a monthly schedule (inventor); assay type: in vivo, human; conditions: treatment continued past the flare
Description: When the treatment was continued past the flare, approximately a third of the patients entered a pharmaceutical free remission for a period of weeks or months.

CLL; hairy cell leukemia = conditions: cited from earlier work
[3] = cited from earlier work
individuals with RA = conditions: cited from earlier work
[4] = 4 mg/M^2 once a week x3 or 4 followed by once every three to four weeks

Row | Structure (SMILES) | patients with significant flare (duration of morning stiffness, tender and swollen joints) (RA patients [1]) | patients entering a pharmaceutical free remission for weeks or months (RA patients [2]) | efficacy in hairy cell leukemia (CLL; hairy cell leukemia; [4]) | toxicity at even lower doses (CLL; hairy cell leukemia; [4]) | toxicity at lower doses (CLL; hairy cell leukemia; 5 mg/M^2 on two successive days) | clinical response in CLL (CLL; hairy cell leukemia; doses of 1.0 to 13.5 mg/kg) | toxicity at very high doses (CLL; hairy cell leukemia; very high doses) | time of peak serum concentrations ([3]; intramuscular administration) | absorption ([3]; parenteral administration) | patients remaining on methotrexate for two or more years (individuals with RA; in vivo) | time to worsening of RA after monotherapy is discontinued (individuals with RA; in vivo) | patients expected to obtain at least partial relief (individuals with RA; methotrexate monotherapy, recent studies) | individuals still on the drug five years after starting (individuals with RA; methotrexate monotherapy) | individuals with RA getting some favorable response (individuals with RA; methotrexate monotherapy) | patients entering remission as defined by ACR criteria (individuals with RA; methotrexate monotherapy)
1 | OC[C@H]1O[C@@H](n2cnc3c2NC=NC[C@H]3O)C[C@@H]1O [pentostatin, 2′-deoxycoformycin] | 9 of 11 | approximately a third | effective in inducing remission in hairy cell leukemia | no toxicity | mild with transient leukopenia, nausea and lethargy or somnolence | cytoreduction but no clinically meaningful remission in CLL | substantial and may include renal failure secondary to acute tubular necrosis, central nervous system toxicity (seizures), pulmonary edema, and keratoconjunctivitis |  |  |  |  |  |  |  | 
2 | CN(Cc1cnc2nc(N)nc(N)c2n1)c1ccc(C(=O)N[C@@H](CCC(=O)O)C(=O)O)cc1 [methotrexate, N-[4-[[(2,4-diamino-6-pteridinyl)methyl]methylamino]benzoyl]-L-glutamic acid] |  |  |  |  |  |  |  | thirty to sixty | generally complete absorption | Up to 70% | three to six | about 70% | over 50% | Approximately 70% | less than 30%
